Data published in ChEMBL document CHEMBL3044789, “Comparing weed and crop seedling response to pre-emergence pendimethalin application in Corchorus olitorius and Abelmoschus esculentus” (Crop Prot, 2006).

Columns and labels:
[1] = test system: Calopogonium mucunoides; experiment: Herbicidal activity against Calopogonium mucunoides in Corchorus olitorius plots assessed as major weed growth at 0.99 kg a.i/ha after 2 weeks; assay type: functional
[2] = test system: Cyperus rotundus; experiment: Herbicidal activity against Cyperus rotundus in Abelmoschus esculentus plots assessed as weed cover at 0.66 kg a.i/ha after 4 weeks (reference value: 22.6 +/- 0.49 %); assay type: functional
[3] = test system: Ageratum conyzoides; experiment: Herbicidal activity against Ageratum conyzoides in Abelmoschus esculentus plots assessed as weed cover at 0.33 kg a.i/ha after 4 weeks (reference value: 22.6 +/- 0.49 %); assay type: functional
[4] = test system: Corchorus olitorius; experiment: Phytotoxicity in Corchorus olitorius assessed as seedling injury at 0.66 kg a.i/ha applied as solution after 7 weeks relative to control; assay type: organism-based; settings: in vivo, other, 1176 h
[5] = test system: Calopogonium mucunoides; experiment: Herbicidal activity against Calopogonium mucunoides in Corchorus olitorius plots assessed as weed recovery at 0.33 kg a.i/ha after 2 weeks (reference value: 78.3 +/- 0.74 %); assay type: functional
[6] = test system: Calopogonium mucunoides; experiment: Herbicidal activity against Calopogonium mucunoides in Corchorus olitorius plots assessed as weed cover at 0.99 kg a.i/ha after 7 weeks (reference value: 1.7 +/- 0.56 %); assay type: functional
[7] = test system: Chromolaena odorata; experiment: Herbicidal activity against Chromolaena odorata in Corchorus olitorius plots assessed as minor weed growth at 0.99 kg a.i/ha after 2 weeks; assay type: functional
[8] = test system: Euphorbia heterophylla; experiment: Herbicidal activity against Euphorbia heterophylla in Abelmoschus esculentus plots assessed as weed cover at 0.99 kg a.i/ha after 2 weeks (reference value: 63.5 +/- 0.29 %); assay type: functional
[9] = test system: Euphorbia heterophylla; experiment: Herbicidal activity against Euphorbia heterophylla in Corchorus olitorius plots assessed as weed recovery at 0.99 kg a.i/ha after 2 weeks (reference value: 78.3 +/- 0.74 %); assay type: functional
[10] = test system: Calopogonium mucunoides; experiment: Herbicidal activity against Calopogonium mucunoides in Corchorus olitorius plots assessed as weed cover at 0.66 kg a.i/ha after 4 weeks (reference value: 20.1+/- 0.57 %); assay type: functional
[11] = test system: Euphorbia heterophylla; experiment: Herbicidal activity against Euphorbia heterophylla in Abelmoschus esculentus plots assessed as weed cover at 0.99 kg a.i/ha after 7 weeks (reference value: 14.7 +/- 0.46 %); assay type: functional
[12] = test system: Abelmoschus esculentus; experiment: Phytotoxicity in Abelmoschus esculentus assessed as root length at 0.33 kg a.i/ha applied as solution after 7 weeks (reference value: 23 +/- 0.34 mm); assay type: organism-based; settings: in vivo, other, 1176 h
[13] = test system: Chromolaena odorata; experiment: Herbicidal activity against Chromolaena odorata in Corchorus olitorius plots assessed as weed cover at 0.33 kg a.i/ha after 4 weeks (reference value: 20.1+/- 0.57 %); assay type: functional
[14] = test system: Abelmoschus esculentus; experiment: Phytotoxicity in Abelmoschus esculentus assessed as root length at 0.66 kg a.i/ha treated to soil after 7 weeks (reference value: 2.9 +/- 0.45 mm); assay type: organism-based; settings: in vivo, other, 1176 h
[15] = test system: Abelmoschus esculentus; experiment: Phytotoxicity in Abelmoschus esculentus assessed as seed germination at 1.32 kg a.i/ha applied as solution after 7 weeks (reference value: 85.7 +/- 0.36 %); assay type: organism-based; settings: in vivo, other, 1176 h
[16] = test system: Corchorus olitorius; experiment: Phytotoxicity in Corchorus olitorius assessed as shoot length at 1.32 kg a.i/ha applied as solution after 7 weeks (reference value: 22.9 +/- 0.8 mm); assay type: organism-based; settings: in vivo, other, 1176 h
[17] = test system: Calopogonium mucunoides; experiment: Herbicidal activity against Calopogonium mucunoides in Abelmoschus esculentus plots assessed as weed cover at 0.99 kg a.i/ha after 2 weeks (reference value: 63.5 +/- 0.29 %); assay type: functional
[18] = test system: Synedrella nodiflora; experiment: Herbicidal activity against Synedrella nodiflora in Abelmoschus esculentus plots assessed as weed cover at 1.32 kg a.i/ha after 2 weeks (reference value: 63.5 +/- 0.29 %); assay type: functional
[19] = test system: Cyperus rotundus; experiment: Herbicidal activity against Cyperus rotundus in Corchorus olitorius plots assessed as weed recovery at 0.66 kg a.i/ha after 2 weeks (reference value: 78.3 +/- 0.74 %); assay type: functional
[20] = test system: Euphorbia heterophylla; experiment: Herbicidal activity against Euphorbia heterophylla in Abelmoschus esculentus plots assessed as major weed growth at 0.99 kg a.i/ha after 2 weeks; assay type: functional
[21] = test system: Talinum fruticosum; experiment: Herbicidal activity against Talinum fruticosum in Corchorus olitorius plots assessed as weed cover at 0.99 kg a.i/ha after 7 weeks (reference value: 1.7 +/- 0.56 %); assay type: functional
[22] = test system: Abelmoschus esculentus; experiment: Phytotoxicity in Abelmoschus esculentus assessed as seedling emergence at 1.32 kg a.i/ha treated to soil after 7 weeks (reference value: 95 +/- 0.05 %); assay type: organism-based; settings: in vivo, other, 1176 h
[23] = test system: Calopogonium mucunoides; experiment: Herbicidal activity against Calopogonium mucunoides in Abelmoschus esculentus plots assessed as weed recovery at 0.66 kg a.i/ha after 2 weeks (reference value: 60.1 +/- 0.46 %); assay type: functional
[24] = test system: Synedrella nodiflora; experiment: Herbicidal activity against Synedrella nodiflora in Abelmoschus esculentus plots assessed as major weed growth at 0.33 kg a.i/ha after 2 weeks; assay type: functional
[25] = test system: Corchorus olitorius; experiment: Phytotoxicity in Corchorus olitorius assessed as crop seedling injury at 0.33 kg a.i/ha after 2 weeks relative to untreated control; assay type: organism-based; settings: in vivo, 336 h
[26] = test system: Corchorus olitorius; experiment: Phytotoxicity in Corchorus olitorius assessed as shoot length at 0.99 kg a.i/ha treated to soil after 7 weeks (reference value: 23.7 +/- 0.10 mm); assay type: organism-based; settings: in vivo, other, 1176 h
[27] = test system: Corchorus olitorius; experiment: Phytotoxicity in Corchorus olitorius assessed as shoot length at 1.32 kg a.i/ha treated to soil after 7 weeks (reference value: 23.7 +/- 0.10 mm); assay type: organism-based; settings: in vivo, other, 1176 h
[28] = test system: Euphorbia heterophylla; experiment: Herbicidal activity against Euphorbia heterophylla in Abelmoschus esculentus plots assessed as weed cover at 0.66 kg a.i/ha after 2 weeks (reference value: 63.5 +/- 0.29 %); assay type: functional
[29] = test system: Euphorbia heterophylla; experiment: Herbicidal activity against Euphorbia heterophylla in Abelmoschus esculentus plots assessed as weed cover at 0.66 kg a.i/ha after 4 weeks (reference value: 22.6 +/- 0.49 %); assay type: functional
[30] = test system: Calopogonium mucunoides; experiment: Herbicidal activity against Calopogonium mucunoides in Corchorus olitorius plots assessed as weed cover at 1.32 kg a.i/ha after 2 weeks (reference value: 81.7 +/- 0.43 %); assay type: functional
[31] = test system: Calopogonium mucunoides; experiment: Herbicidal activity against Calopogonium mucunoides in Abelmoschus esculentus plots assessed as weed cover at 0.66 kg a.i/ha after 2 weeks (reference value: 63.5 +/- 0.29 %); assay type: functional
[32] = test system: Abelmoschus esculentus; experiment: Phytotoxicity in Abelmoschus esculentus assessed as shoot length at 1.32 kg a.i/ha treated to soil after 7 weeks (reference value: 8.5 +/- 0.34 mm); assay type: organism-based; settings: in vivo, other, 1176 h
[33] = test system: Euphorbia heterophylla; experiment: Herbicidal activity against Euphorbia heterophylla in Abelmoschus esculentus plots assessed as weed cover at 1.32 kg a.i/ha after 7 weeks (reference value: 14.7 +/- 0.46 %); assay type: functional
[34] = test system: Abelmoschus esculentus; experiment: Phytotoxicity in Abelmoschus esculentus assessed as shoot length at 0.66 kg a.i/ha treated to soil after 7 weeks (reference value: 8.5 +/- 0.34 mm); assay type: organism-based; settings: in vivo, other, 1176 h
[35] = test system: Euphorbia heterophylla; experiment: Herbicidal activity against Euphorbia heterophylla in Corchorus olitorius plots assessed as weed cover at 0.33 kg a.i/ha after 4 weeks (reference value: 20.1+/- 0.57 %); assay type: functional
[36] = test system: Talinum fruticosum; experiment: Herbicidal activity against Talinum fruticosum in Abelmoschus esculentus plots assessed as weed recovery at 0.99 kg a.i/ha after 2 weeks (reference value: 60.1 +/- 0.46 %); assay type: functional

With `CCC(CC)Nc1c([N+](=O)[O-])cc(C)c(C)c1[N+](=O)[O-]` [PENDIMETHALIN] the Activity [1] was 31 /m2, the Activity [2] was 47.9% and the Activity [3] was 53.8%. It also gave an Activity [4] of 31.7%, an Activity [5] of 31.7% and an Activity [6] of 95%. The Activity [7] was 1 /m2, the Activity [8] was 47.9% and the Activity [9] was 21.7%. It also gave an Activity [10] of 63.3%, an Activity [11] of 83.9% and an Activity [12] of 11.7 mm. For the same molecule, the Activity [13] was 73.3%, the Activity [14] was 1.4 mm and the Activity [15] was 40.2%. For the same molecule, the Activity [16] was 5.3 mm, the Activity [17] was 47.9% and the Activity [18] was 45%. For the same molecule, the Activity [19] was 33.3%, the Activity [20] was 31 /m2 and the Activity [21] was 95%. For the same molecule, the Activity [22] was 85%, the Activity [23] was 47.9% and the Activity [24] was 31 /m2. For the same molecule, the Activity [25] was 41.7%, the Activity [26] was 22.5 mm and the Activity [27] was 19.4 mm. For the same molecule, the Activity [28] was 50.8%, the Activity [29] was 47.9% and the Activity [30] was 41.7%. The Activity [31] was 50.8%, the Activity [32] was 3.6 mm and the Activity [33] was 82.4%. For the same molecule, the Activity [34] was 5.8 mm, the Activity [35] was 73.3% and the Activity [36] was 36.2%.
